Laboratory results taken from patent US8975400B2, “2,3-dihydroimidazo[1, 2-c] pyrimidin-5(1 H)-one compounds use as LP-PLA2 inhibitors” (Glaxo Group Limited, priority 2011, dated 2015).
Where a name gives a salt, the structure may show the parent alone.

What was measured:
Lp-PLA2 in human plasma = target: T1, Lp-PLA2 in human plasma (Homo sapiens, UniProt Q13093); experiment: Lp-PLA2 human plasma assay (Thio-PAF assay); assay type: biochemical; conditions: pooled human plasma, 2-thio-PAF substrate; read-out: pIC50 in the thio-PAF assay (converted)
T1 construct: This assay may detect the activity of Lp-PLA2 in human plasma; from tissue; host or cells: pooled human plasma
T1 sequence (Q13093 22-441): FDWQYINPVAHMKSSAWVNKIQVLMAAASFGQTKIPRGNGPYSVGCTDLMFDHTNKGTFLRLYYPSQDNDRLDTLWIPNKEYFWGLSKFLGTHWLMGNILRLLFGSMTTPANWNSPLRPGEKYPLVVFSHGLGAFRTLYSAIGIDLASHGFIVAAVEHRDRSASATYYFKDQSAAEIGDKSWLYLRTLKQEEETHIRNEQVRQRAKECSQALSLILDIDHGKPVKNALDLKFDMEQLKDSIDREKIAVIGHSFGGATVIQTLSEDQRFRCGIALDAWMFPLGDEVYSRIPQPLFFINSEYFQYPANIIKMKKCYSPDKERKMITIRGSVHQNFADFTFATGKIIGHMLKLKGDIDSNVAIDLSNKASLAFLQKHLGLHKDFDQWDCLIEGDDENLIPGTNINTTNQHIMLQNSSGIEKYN
Text: (3) Lipoprotein-Associated Phospholipase A2 (Lp-PLA2) Human Plasma Assay (Also Referred to as “Thio-PAF Assay”)
The human plasma assay utilizes a thioester analog of PAF (phosphatidylcholine), where hydrolysis yields to the formation of a phospholipid containing a free thiol group. The amount of thiol is quantitated continuously by reacting with CPM (7-diethylamino-3-(4′-maleimidylphenyl)-4-methylcoumarin), a maleimide which increases in fluoresence after Michael addition of thiols. This assay may detect the activity of Lp-PLA2 in human plasma, as determined by specific inhibition by Lp-PLA2 inhibitors.
The thio-PAF assay was run as a quenched 15 μL assay. Compounds source plate was prepared by making 1:3 (by volume) serial dilution of the compounds into pure DMSO on 384-well microplate. 0.01 μL of compounds on compound source plate were transferred to 384 well Greiner 784076 (black) low-volume plates by ECHO liquid dispenser. 8 μL pooled human plasma, which was previously aliquoted and frozen, was added. Plates were centrifuged for 10 sec at 500 rpm. After 30 minutes preincubation, 2 μL of substrate solution comprising 2.5 mM 2-thio-PAF [from ethanol stock], 32 μM CPM [from a DMSO stock] and 3.2 mM NEM (N-ethylmaleimide) [made fresh daily in DMSO] in assay buffer of 50 mM HEPES, pH 7.4, 150 mM NaCl, 1 mM CHAPS was added to 384 well Greiner 784076 (black) low-volume plates by BRAVO liquid handling station. After 2 mins, reaction was quenched with 5 μL of 5% aqueous trifluoroacetic acid (TFA). Plates were covered to protect from light and incubated for 40 min at room temperature. Plates were read at ex: 380/em: 485 using-Envision microplate reader. pIC50 data, curve and QC analysis was conducted by using XLFit module in Excel.

[1] = target: T2, recombinant human Lp-PLA2 (Homo sapiens, UniProt Q13093); experiment: Recombinant human Lp-PLA2 assay (rhLp-PLA2, PED6 assay); assay type: biochemical; conditions: recombinant human Lp-PLA2, PED6 substrate; upper limit for pIC50 in this assay is 9.3
T2 sequence (Q13093 22-441): T1 sequence (Q13093 22-441)
Text: (1) Recombinant Human Lp-PLA2 Assay (rhLp-PLA2) (Also Referred to as “PED6” Assay)
N-((6-(2,4-dinitrophenyl)amino)-hexanoyl)-2-(4,4-difluoro-5,7-dimethyl-4-bora-3a,4a-diaza-s-indacene-3-pentanoyl)-1-hexadecanoyl-sn-glycero-3-phosphoethanolamine, triethylammonium salt (PED6) is a commercially available fluorescently-labeled phospholipid, which is commercially available from Invitrogene and Molecular Probes. There is a quenching […] and a Bodipy fluorescein (FL) group in the sn2 position. Upon cleavage with Lp-PLA2, the Bodipy FL group is liberated and then may result in an increase in fluorescence. Inhibitors of Lp-PLA2 therefore prevent this cleavage and no fluorescent increase is observed.
The PED6 assay was run as an unquenched 10 μL assay. The source plate containing the compounds to be tested was prepared by making 1:3 (by volume) serial dilution of the compounds within DMSO on 384-well microplate. Then, 0.01 μL of the compounds on compound source plate were transferred into 384 well Greiner 784076 (black) plates using ECHO liquid dispenser. 5 µL of recombinant human Lp-PLA2 enzyme (4 nM (or 110 pM) rhLp-PLA2 in assay buffer of 50 mM HEPES, pH 7.4, 150 mM NaCl, 1 mM CHAPS) was added to each well of the plate. Plates were centrifuged for 10 sec at 500 rpm. After 30 minutes preincubation, 5 µL of substrate (4 μM (or 5 μM) PED6 [from 5 mM DMSO stock] in assay buffer of 50 mM HEPES, pH 7.4, 150 mM NaCl, 1 mM CHAPS) was added to 384 well Greiner 784076 (black) plates. Plates were centrifuged for 10 sec at 500 rpm. The plate was covered to protect it from light and incubated for 20 min at room temperature. The plates were read for fluorescence intensity at ex: 480/em: 540 using ViewLux microplate imager for Envision spectrofluroimeters pIC50 data, curve and QC analysis was conducted by using XL fit module in Excel.
The compounds described below were tested generally according to the PED6 assay described above.

IC50 (Lp-PLA2 in human plasma) [nM]	IC50 [1] [nM]	SMILES
≤ 1000	≤ 10	CN1CCn2c1cc(OCc1ccc(Oc3ccc(Cl)c(F)c3)c(C#N)c1)nc2=O [Example E37, 2-(4-chloro-3-fluorophenoxy)-5-(((1-methyl-5-oxo-1,2,3,5-tetrahydroimidazo[1,2-c]pyrimidin-7-yl)oxy)methyl)benzonitrile, trifluoroacetic acid salt]
≤ 100	≤ 10	CN1CCn2c1cc(OCc1ccc(Oc3ccc(C#N)c(Cl)c3)c(C#N)c1)nc2=O [Example 122, 2-chloro-4-(2-cyano-4-(((1-methyl-5-oxo-1,2,3,5-tetrahydroimidazo[1,2-c]pyrimidin-7-yl)oxy)methyl)phenoxy)benzonitrile]
≤ 100	2	N#Cc1cc(COc2cc3n(c(=O)n2)CCN3)ccc1Oc1ccc(C#N)c(C(F)(F)F)c1 [Example 88, 4-(2-cyano-4-(((5-oxo-1,2,3,5-tetrahydroimidazo[1,2-c]pyrimidin-7-yl)oxy)methyl)p-henolxy)-2-(trifluoromethyl)benzonitrile]
≤ 1000	≤ 1	CN1CCn2c1cc(OCc1cc(F)c(Oc3cccc(Cl)c3)c(F)c1)nc2=O [Example E82, 7-((4-(3-chlorophenoxy)-3,5-difluorobenzyl)oxy)1-methyl-2,3-dihydroimidazo[1,2-c]pyrimidin-5(1H)-one]
≤ 100	≤ 10	CN1CCn2c1cc(OCc1ccc(Oc3ccc(F)c(C#N)c3)c(C#N)c1)nc2=O [Example E52, 5-(2-cyano-4-(((1-methyl-5-oxo-1,2,3,5-tetrahydroimidazo[1,2-c]pyrimidin-7-yl)oxy)methyl)phenoxy)-2-fluorobenzonitrile]
≤ 1000	≤ 10	CN1CCn2c1cc(OCCc1ccc(Oc3ccc(Cl)c(C(F)(F)F)c3)cc1)nc2=O [Example E13, 7-(4-(4-chloro-3-(trifluoromethyl)phenoxy)phenethoxy)-1-methyl-2,3-dihydroimi-dazo[1,2-c]pyrimidin-5(1H)-one]
≤ 100	≤ 1	CN1CCn2c1cc(OCc1ccc(Oc3ccc(Cl)c(C(F)(F)F)c3)c(F)c1)nc2=O [Example E85, 7-((4-(4-chloro-3-(trifluoromethyl)phenoxy)-3-fluorobenzyl)oxy)-1-methyl-2,3-dihydroimidazo[1,2-c]pyrimidin-5(1H)-one]
≤ 1000	≤ 10	CN1CCn2c1cc(OCc1cc(F)c(Oc3cc(F)cc(F)c3)c(F)c1)nc2=O [Example 99, 7-((4-(3,5-difluorophenoxy)-3,5-difluorobenzyl)oxy)-1-methyl-2,3-dihydroimida-zo[1,2-c]pyrimidin-5(1H)-one]
≤ 100	≤ 10	CN1CCn2c1cc(OCc1ccc(Oc3ccc(C(F)(F)F)nc3)c(C#N)c1)nc2=O [Example E49, 5-(((1-methyl-5-oxo-1,2,3,5-tetrahydroimidazo[1,2-c]pyrimidin-7-yl)oxy)methyl)-2-((6-(trifluoromethyl)pyridin-3-yl)oxy)benzonitrile]
≤ 100	≤ 1	CN1CCn2c1cc(OCc1ccc(Oc3ccc(F)c(C(F)(F)F)c3)c(F)c1)nc2=O [Example E45, 7-((3-fluoro-4-(4-fluoro-3-(trifluoromethyl)phenoxy)benzyl)oxy)-1-methyl-2,3-dihydroimidazo[1,2-c]pyrimidin-5(1H)-one, trifluoroacetic acid salt]
≤ 1000	≤ 10	O=c1nc(OCc2ccc(Oc3ccc(Cl)c(C(F)(F)F)c3)cc2)cc2n1CCN2 [Example 89, 7-((4-(4-chloro-3-(trifluoromethyl)phenoxy)benzyl)oxy)-2,3-dihydroimidazo[1,2-c]pyrimidin-5(1H)-one]
≤ 100	1.26	CN1CCn2c1cc(OCc1ccc(Oc3ccc(C#N)c(F)c3)c(C#N)c1)nc2=O [Example 95, 4-(2-cyano-4-(((1-methyl-5-oxo-1,2,3,5-tetrahydroimidazo[1,2-c]pyrimidin-7-yl)oxy)methyl)phenoxy)-2-fluorobenzonitrile]
≤ 1000	≤ 10	CN1CCn2c1cc(OCc1cc(F)c(Oc3ccc(C(F)(F)F)cc3)c(F)c1)nc2=O [Example E84, 7-((3,5-difluoro-4-(4-(trifluoromethyl)phenoxy)benzyl)oxy)-1-methyl-2,3-dihydroimidazo[1,2-c]pyrimidin-5(1H)-one]
≤ 100	≤ 1	CN1CCn2c1cc(OCc1cc(F)c(Oc3ccc(Cl)c(F)c3)c(F)c1)nc2=O [Example E86, 7-((4-(4-chloro-3-fluorophenoxy)-3,5-difluorobenzyl)oxy)-1-methyl-2,3-dihydroimi-dazo[1,2-c]pyrimidin-5(1H)-one]
≤ 1000	≤ 10	CN1CCn2c1cc(OCc1ccc(Oc3ccc(C(F)(F)F)cn3)c(C#N)c1)nc2=O [Example E35, 5-(((1-methyl-5-oxo-1,2,3,5-tetrahydroimidazo[1,2-c]pyrimidin-7-yl)oxy)methyl)-2-((5-(trifluoromethyl)pyridin-2-yl)oxy)benzonitrile, trifluoroacetic acid salt]
≤ 100	0.631	CN1CCn2c1cc(OCc1ccc(Oc3ccc(C#N)c(C(F)(F)F)c3)c(F)c1)nc2=O [Example E83, 4-(2-fluoro-4-(((1-methyl-5-oxo-1,2,3,5-tetrahydroimidazo[1,2-c]pyrimidin-7-yl)oxy)methyl)phenoxy)-2-(trifluoromethyl)benzonitrile, trifluoroacetic acid salt]
≤ 100	≤ 10	CN1CCn2c1cc(OCc1ccc(Oc3ccc(Cl)c(C#N)c3)c(C#N)c1)nc2=O [Example 114, 2-chloro-5-(2-cyano-4-(((1-methy-5-oxo-1,2,3,5-tetrahydroimidazo[1,2-c]pyrimidin-7-yl)oxy)methyl)phenoxy)benzonitrile]
≤ 100	0.631	N#Cc1cc(COc2cc3n(c(=O)n2)CCN3)ccc1Oc1ccc(C(F)(F)F)c(F)c1 [Example E65, 2-(3-fluoro-4-(trifluoromethyl)phenoxy)-5-(((5-oxo-1,2,3,5-tetrahydroimidazo[1,2-c]pyrimidin-7-yl)oxy)methyl)benzonitrile]
≤ 1000	≤ 10	CN1CCn2c1cc(OCc1ccc(Oc3cc(F)c(F)c(F)c3)c(C#N)c1)nc2=O [Example E38, 5-(((1-methyl-5-oxo-1,2,3,5-tetrahydroimidazo[1,2-c]pyrimidin-7-yl)oxy)methyl)-2-(3,4,5-trifluorophenoxy)benzonitrile, trifluoroacetic acid salt]
	≤ 10	CN1CCn2c1cc(OCc1cc(F)c(Oc3ccc(F)cc3)c(F)c1)nc2=O [Example E12, 7-((3,5-difluoro-4-(4-fluorophenoxy)benzyl)oxy)-1-methyl-2,3-dihydroimidazo[1,2-c]pyrimidin-5(1H)-one]
